Data as given in patent publication US11008317B2, “Triazolopyridine inhibitors of myeloperoxidase and/or EPX” (priority 2016, dated 2021).
Counter-ions that a name gives are not always drawn.

Legend:
myeloperoxidase [1] = target: T1, myeloperoxidase (Homo sapiens, UniProt P05164); experiment: MPO Peroxidation Assay (Amplex Red Assay); assay type: biochemical; conditions: potency range class
T1 sequence (P05164 49-745): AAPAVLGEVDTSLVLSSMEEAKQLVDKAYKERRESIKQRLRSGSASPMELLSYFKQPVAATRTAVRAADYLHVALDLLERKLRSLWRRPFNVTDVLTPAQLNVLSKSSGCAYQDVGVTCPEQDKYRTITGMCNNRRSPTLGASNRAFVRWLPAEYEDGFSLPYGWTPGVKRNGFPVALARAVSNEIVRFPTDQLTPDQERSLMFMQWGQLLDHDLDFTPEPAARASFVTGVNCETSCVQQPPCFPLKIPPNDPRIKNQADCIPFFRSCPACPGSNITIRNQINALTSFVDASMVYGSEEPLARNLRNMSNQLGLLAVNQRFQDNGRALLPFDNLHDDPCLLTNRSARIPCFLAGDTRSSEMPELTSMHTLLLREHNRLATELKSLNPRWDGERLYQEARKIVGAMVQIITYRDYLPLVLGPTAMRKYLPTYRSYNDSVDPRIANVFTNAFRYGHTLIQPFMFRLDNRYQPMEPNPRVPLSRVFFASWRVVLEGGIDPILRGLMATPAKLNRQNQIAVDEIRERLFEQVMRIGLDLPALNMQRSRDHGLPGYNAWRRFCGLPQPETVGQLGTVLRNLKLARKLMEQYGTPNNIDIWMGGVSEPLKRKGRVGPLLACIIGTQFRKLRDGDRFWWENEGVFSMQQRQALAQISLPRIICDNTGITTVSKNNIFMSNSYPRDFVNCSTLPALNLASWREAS

myeloperoxidase [2] = target: T1, myeloperoxidase; experiment: MPO Chlorination Assay (APF Assay); assay type: biochemical; conditions: potency range class
[3] = read-out: Amplex Red Assay IC50 value

Compound	IC50 (myeloperoxidase [1]; [3]) [µM]	IC50 (myeloperoxidase [2]; read-out: APF Assay IC50 value) [µM]	IC50 (myeloperoxidase [1]; Amplex Red Assay IC50 value (μM)) [µM]	IC50 (myeloperoxidase [2]; APF Assay IC50 value (μM)) [µM]
Nc1cc(C(CCCN2CCC3(CC2)OCc2ccccc23)c2ccccc2)c2nn[nH]c2n1 (stereo not drawn) [Example 210, 7-(1-phenyl-4-{3H-spiro[2-benzofuran-1,4′-piperidine]-1′-yl}butyl)-3H-[1,2,3]triazolo [4,5-b]pyridin-5-amine]	0.101 to 0.999	0.001 to 0.1	–	–
N#CC1(c2ccccc2)CCN(CCCC(c2ccccc2)c2cc(N)nc3[nH]nnc23)CC1 (stereo not drawn) [Example 211, 1-(4-{5-amino-3H-[1,2,3]triazolo [4,5-b]pyridin-7-yl}-4-phenylbutyl)-4-phenylpiperidine-4-carbonitrile]	0.101 to 0.999	0.001 to 0.1	–	–
Nc1cc(C(CCCN2CCCC(c3ccccc3)CC2)c2ccccc2)c2nn[nH]c2n1 (stereo not drawn) [Example 212, 7-[1-phenyl-4-(4-phenylazepan-1-yl)butyl]-3H-[1,2,3] triazolo[4,5-b] pyridin-5-amine]	0.101 to 0.999	0.001 to 0.1	–	–
Nc1cc(C(CCCN2CCC(Cc3ccccc3)CC2)c2ccccc2)c2nn[nH]c2n1 (stereo not drawn) [Example 213, 7-[4-(4-benzylpiperidin-1-yl)-1-phenylbutyl]-3H-[1,2,3]triazolo [4,5-b]pyridin-5-amine]	0.101 to 0.999	0.101 to 0.999	–	–
Nc1cc([C@H](CCCN2CCCC(c3ccccc3)CC2)c2ccccc2)c2nn[nH]c2n1 (stereo partly drawn) [Example 215, 7-[(1R)-1-phenyl-4-(4-phenylazepan-1-yl)butyl]-3H-[1,2,3]triazolo[4,5-b]pyridin-5-amine]	0.101 to 0.999	0.001 to 0.1	–	–
Nc1cc([C@H](CCCN2[C@@H]3CC[C@H]2C[C@](O)(c2ccc(Cl)cc2)C3)c2ccccc2)c2nn[nH]c2n1 [Example 216, (1R,3R,5S)-8-[(4R)-4-{5-amino-3H-[1,2,3]triazolo [4,5-b]pyridin-7-yl}-4-phenylbutyl]-3-(4-chlorophenyl)-8-azabicyclo[3.2.1] octan-3-ol]	0.101 to 0.999	0.001 to 0.1	–	–
Nc1cc([C@H](CCCN2CCC3(CC2)NC(=O)Cc2ccccc23)c2ccccc2)c2nn[nH]c2n1 [Example 217, 1′-[(4R)-4-{5-amino-3H-[1,2,3]triazolo [4,5-b]pyridin-7-yl}-4-phenylbutyl]-3,4-dihydro-2H-spiro[isoquinoline-1,4′-piperidine]-3-one]	0.101 to 0.999	0.101 to 0.999	–	–
Nc1cc([C@H](CCCN2CCC(c3ccc4ccccc4c3)CC2)c2ccccc2)c2nn[nH]c2n1 [Example 218, 7-[(1R)-4-[4-(naphthalen-2-yl)piperidin-1-yl]-1-phenylbutyl]-3H-[1,2,3]triazolo[4,5-b] pyridin-5-amine]	0.101 to 0.999	0.001 to 0.1	–	–
Nc1cc([C@H](CCCN2CC[C@H]3C[C@@H]2Cc2ccccc23)c2ccccc2)c2nn[nH]c2n1 [Example 219, 7-((R)-1-phenyl-4-((2R,6S)-1,4,5,6-tetrahydro-2,6-methanobenzo[d]azocin-3(2H)-yl)butyl)-3H-[1,2,3] triazolo[4,5-b] pyridin-5-amine]	–	–	0.101 to 0.999	0.001 to 0.1
Nc1cc([C@H](CCCN2CCC(c3cccc(C(F)(F)F)c3)C(O)C2)c2ccccc2)c2nn[nH]c2n1 (stereo partly drawn) [Example 220, 1-[(4R)-4-{5-amino-3H-[1,2,3]triazolo [4,5-b]pyridin-7-yl}-4-phenylbutyl]-4-[3-(trifluoromethyl)phenyl]piperidin-3-ol]	0.101 to 0.999	0.101 to 0.999	–	–
Nc1cc([C@H](CCCN2CCC(Cc3ccccc3)C2)c2ccccc2)c2nn[nH]c2n1 (stereo partly drawn) [Example 221, 7-[(1R)-4-(3-benzylpyrrolidin-1-yl)-1-phenylbutyl]-3H-[1,2,3]triazolo[4,5-b]pyridin-5-amine]	0.101 to 0.999	0.101 to 0.999	–	–
Nc1cc([C@H](CCCN2CCC3(CC2)NC(=O)Nc2ccccc23)c2ccccc2)c2nn[nH]c2n1 [Example 222, 1-[(4R)-4-{5-amino-3H-[1,2,3]triazolo [4,5-b]pyridin-7-yl}-4-phenylbutyl]-2′,3′-dihydro-1′H-spiro [piperidine-4,4′-quinazoline]-2′-one]	1 to 10	0.001 to 0.1	–	–
Nc1cc(C(CCO[C@H]2CC[C@H](c3ccccc3)CC2)c2ccccc2)c2nn[nH]c2n1 (stereo partly drawn) [Example 223, 7-(1-phenyl-3-((4-phenylcyclohexyl)oxy)propyl)-3H-[1,2,3]triazolo[4,5-b]pyridin-5-amine]	0.101 to 0.999	0.101 to 0.999	–	–
Nc1cc(C(CC(O)CCc2ccccc2)c2ccccc2)c2nn[nH]c2n1 (stereo not drawn) [Example 225, 1-(5-amino-3H-[1,2,3]triazolo[4,5-b]pyridin-7-yl)-1,5-diphenylpentan-3-ol, TFA]	0.101 to 0.999	0.101 to 0.999	–	–
Nc1cc(C(CNCC(F)(F)c2ccccc2)c2ccccc2)c2nn[nH]c2n1 (stereo not drawn) [Example 226, 7-(2-((2,2-difluoro-2-phenylethyl)amino)-1-phenylethyl)-3H-[1,2,3]triazolo[4,5-b]pyridin-5-amine]	0.101 to 0.999	0.101 to 0.999	–	–
Nc1cc(C(CNCCc2ccccc2)c2ccccc2)c2nn[nH]c2n1 (stereo not drawn) [Example 228, 7-{1-phenyl-2-[(2-phenylethyl)amino]ethyl}-3H-[1,2,3]triazolo[4,5-b]pyridin-5-amine]	1 to 10	1 to 10	–	–
Nc1cc(C(Cc2ccc(O)cc2)c2ccccc2)c2nn[nH]c2n1 (stereo not drawn) [Example 229, 4-(2-(5-amino-3H-[1,2,3]triazolo[4,5-b]pyridin-7-yl)-2-phenylethyl)phenol]	0.001 to 0.1	0.101 to 0.999	–	–
Nc1cc(C(Cc2cccc(O)c2)c2ccccc2)c2nn[nH]c2n1 (stereo not drawn) [Example 230, 3-(2-(5-amino-3H-[1,2,3]triazolo[4,5-b]pyridin-7-yl)-2-phenylethyl)phenol]	0.001 to 0.1	1 to 10	–	–
Nc1cc(C(CCC(=O)Cc2ccccc2)c2ccccc2)c2nn[nH]c2n1 (stereo not drawn) [Example 233, 5-(5-amino-3H-[1,2,3]triazolo[4,5-b]pyridin-7-yl)-1,5-diphenylpentan-2-one]	0.001 to 0.1	0.101 to 0.999	–	–
Nc1cc(C(CCC(O)Cc2ccccc2)c2ccccc2)c2nn[nH]c2n1 (stereo not drawn) [Example 234, 5-(5-amino-3H-[1,2,3]triazolo[4,5-b]pyridin-7-yl)-1,5-diphenylpentan-2-ol]	0.101 to 0.999	0.101 to 0.999	–	–
Nc1cc(C(CCC(N)Cc2ccccc2)c2ccccc2)c2nn[nH]c2n1 (stereo not drawn) [Example 235, 7-(4-amino-1,5-diphenylpentyl)-3H-[1,2,3]triazolo[4,5-b]pyridin-5-amine]	0.101 to 0.999	0.101 to 0.999	–	–
Nc1cc(C(CCN[C@@H](CO)CCCc2ccccc2)c2ccccc2)c2nn[nH]c2n1 (stereo partly drawn) [Example 236, (R)-2-((3-(5-amino-3H-[1,2,3]triazolo[4,5-b]pyridin-7-yl)-3-phenylpropyl)amino)-5-phenylpentan-1-ol]	1 to 10	0.001 to 0.1	–	–
Nc1cc([C@H](CCO)c2ccccc2)c2nn[nH]c2n1 [Example 237, (R)-3-(5-amino-3H-[1,2,3]triazolo[4,5-b]pyridin-7-yl)-3-phenylpropan-1-ol]	0.101 to 0.999	0.101 to 0.999	–	–
Nc1cc([C@H](Cc2nc3cccc(-c4ccccc4)c3[nH]2)c2ccccc2)c2nn[nH]c2n1 [Example 238, (R)-7-(1-phenyl-2-(7-phenyl-1H-benzo[d]imidazol-2-yl)ethyl)-3H-[1,2,3]triazolo[4,5-b]pyridin-5-amine]	0.101 to 0.999	0.001 to 0.1	–	–
